In patent US20250250251A1, “PIPERIDINYLPYRIDINYLCARBONITRILE DERIVATIVES AS INHIBITORS OF GLUTAMINYL-PEPTIDE CYCLOTRANSFERASE AND GLUTAMINYL-PEPTIDE CYCLOTRANSFERASE LIKE PROTEIN” (Boehringer Ingelheim International GmbH, priority 2024, published 2025):

Legend:
[1] = molecular target: T1, QPCTL (Homo sapiens, UniProt Q9NXS2); assay: Assay A: biochemical QPCTL activity assay (MALDI-TOF MS, CD47 peptide substrate); conditions: Table 3, prior art compounds, read-out: Inhibition of QPCTL: IC50
T1 construct: made in house
In short: (§1)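 Enzyme and compound pre-incubated 10 min at 24° C in 20 mM Tris pH 7.5 with TCEP, BSA, Tween20, then 40 min with CD47 peptide (10 μM for QPCTL, 20 μM for QPCT). Pyroglutamate product/internal standard ratio by MALDI-TOF MS, normalized to controls; four-parameter logistic fit.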

[2] = molecular target: T2, QPCT (Homo sapiens, UniProt Q16769); assay: Assay A: biochemical QPCT activity assay (MALDI-TOF MS, CD47 peptide substrate); conditions: Table 3, prior art compounds, read-out: Inhibition of QPCT: IC50
T2 construct: purchased Origine (OriGene) TP700028
In short: as §1

[3] = Assay C: permeability in CACO-2 cells; type: in vitro ADME; conditions: human, Caco-2, pH 7.2
In short: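 Caco-2 monolayers were grown 10–25 days on porous filter inserts. Compound was applied to the apical or basolateral donor side for A-B or B-A transport (3 filters), and the receiver was sampled for up to 2 h. Quantitation was by HPLC-MS/MS or scintillation; efflux ratio = B-A/A-B permeability.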

[4] = tested on: CYP3A4 mRNA; assay: Assay D: CYP induction screening assay in primary human hepatocytes; type: in vitro ADME; conditions: Table 10, prior art compounds, 48 h
In short: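 Single-donor cryopreserved human hepatocytes on collagen with Matrigel overlay were exposed to test compound at […] (0.1% DMSO) for 48 h, medium renewed at 24 h. CYP3A4 mRNA quantified by QuantiGene Plex/Luminex, normalised to geometric mean of RPL32, EIF4E2, GUSB and expressed relative to solvent control.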

[5] = tested on: murine hepatocytes; assay: Assay E: stability in murine hepatocytes; type: in vitro ADME, mouse; conditions: Table 13, prior art compounds, 1 μM, 5% species serum
In short: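 Cryopreserved mouse hepatocytes, typically 1 Mio cells/mL in medium with 5% species serum, were dosed at 1 μM compound (0.05% DMSO) at 37 °C and sampled over 0–6 h. Parent decline was measured by HPLC-MS/MS and CLint calculated from dose/AUC, then scaled by well-stirred liver model.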

[6] = molecular target: isolated QPCTL (Homo sapiens, UniProt Q9NXS2); conditions: as disclosed in WO 2024/020517; read-out: Inhibitory activity on isolated QPCTL, IC50; cited from earlier work
[7] = tested on: cellular (Ramos) QPCTL activity; conditions: Ramos cells, as disclosed in WO 2024/020517; read-out: Inhibitory activity of cellular (Ramos) QPCTL activity in a FACS assay; cited from earlier work

T2 sequence (Q16769 29-361): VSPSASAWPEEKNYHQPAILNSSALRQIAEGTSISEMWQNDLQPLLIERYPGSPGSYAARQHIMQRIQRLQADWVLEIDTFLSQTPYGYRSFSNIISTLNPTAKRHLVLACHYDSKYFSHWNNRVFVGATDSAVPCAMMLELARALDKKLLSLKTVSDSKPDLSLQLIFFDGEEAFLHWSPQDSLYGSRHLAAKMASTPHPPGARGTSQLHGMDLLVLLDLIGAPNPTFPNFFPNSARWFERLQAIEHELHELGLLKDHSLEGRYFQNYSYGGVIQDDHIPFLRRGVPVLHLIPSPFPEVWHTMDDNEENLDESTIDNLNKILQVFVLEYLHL
Chain of isolated QPCTL (Q9NXS2 whole entry): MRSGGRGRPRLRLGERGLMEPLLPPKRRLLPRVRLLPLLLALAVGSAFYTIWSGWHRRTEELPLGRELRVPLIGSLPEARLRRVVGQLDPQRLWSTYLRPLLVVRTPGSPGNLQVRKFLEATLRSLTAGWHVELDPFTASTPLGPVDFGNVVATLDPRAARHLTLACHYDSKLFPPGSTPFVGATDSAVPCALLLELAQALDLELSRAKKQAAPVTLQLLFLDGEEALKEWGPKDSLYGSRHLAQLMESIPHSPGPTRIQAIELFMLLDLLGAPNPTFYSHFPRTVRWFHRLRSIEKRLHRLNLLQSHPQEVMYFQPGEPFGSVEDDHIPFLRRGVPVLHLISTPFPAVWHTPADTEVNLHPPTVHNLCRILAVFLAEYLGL
T1 sequence (Q9NXS2 whole entry, species assumed): as the sequence (Q9NXS2 whole entry) above

- IC50 [1]: 1 nM
- IC50 [2]: 2 nM
- Papp A→B [3]: 0.2 ×10⁻⁶ cm/s
- efflux ratio ([3]; read-out: Efflux Ratio): 45.3
- n-fold induction of CYP3A4 at 10 μM [4]: 1.7 n-fold
- Mouse Hepatocyte Stability QH [5]: 45%
Structure (SMILES): Cn1cnnc1C1CCN(c2c(-c3ccnnc3)ccc(Cl)c2C#N)CC1 [Compound 33, reference compound]
- IC50 [6]: < 100 nM
- IC50 [7]: < 100 nM
